“And” between values parts separate entries of the source, which are not always exact repeats. Equal values may be shown once. “Also recorded” adds a separate entry of the source. Read-outs that look alike come from different tables or passages of the source.
What was measured:
[1] = BBB permeation by parallel artificial membrane permeability assay (PAMPA); assay type: in vitro ADME; conditions: for Blood-brain barrier permeability in words: PAMPA; for Prediction (BBB permeation): PAMPA-BBB class from Pe; for Papp: read-out: Experimental Pe
From the text: The CNS bioavailability of the lead candidates was further ascertained by PAMPA method [31].

[2] = biological target: T1, recombinant human MAO-A (Homo sapiens, UniProt P21397); experiment: MAO-A enzyme inhibition (kynuramine substrate, 316 nm); conditions: for remaining activity at 10 µM: read-out: Residual Activity at 10 µM (%) MAO-A
T1 sequence (P21397 1-527): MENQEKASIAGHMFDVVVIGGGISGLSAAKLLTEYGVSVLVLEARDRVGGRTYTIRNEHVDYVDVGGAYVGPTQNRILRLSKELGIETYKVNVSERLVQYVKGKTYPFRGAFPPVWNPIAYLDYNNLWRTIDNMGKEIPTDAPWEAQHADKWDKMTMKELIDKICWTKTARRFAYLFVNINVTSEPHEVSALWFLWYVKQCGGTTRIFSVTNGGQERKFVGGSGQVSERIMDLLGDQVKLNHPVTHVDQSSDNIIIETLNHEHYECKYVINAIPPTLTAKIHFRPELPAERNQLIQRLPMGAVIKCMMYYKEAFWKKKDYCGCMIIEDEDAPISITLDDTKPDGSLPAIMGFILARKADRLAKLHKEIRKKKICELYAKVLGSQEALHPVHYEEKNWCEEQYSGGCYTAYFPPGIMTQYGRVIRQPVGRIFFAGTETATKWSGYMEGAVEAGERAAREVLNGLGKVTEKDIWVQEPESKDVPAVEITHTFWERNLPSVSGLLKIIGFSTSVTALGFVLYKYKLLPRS
Protocol: (§4) MAO activity assays were performed using recombinant human MAO-A or MAO-B.
(§5) IC50 values were determined by measuring residual enzyme activities.

[3] = biological target: T2, MAO-B (Homo sapiens, UniProt P27338); experiment: Kinetics study of MAO-B inhibition (Lineweaver-Burk and secondary plots); assay type: biochemical
T2 sequence (P27338 1-520): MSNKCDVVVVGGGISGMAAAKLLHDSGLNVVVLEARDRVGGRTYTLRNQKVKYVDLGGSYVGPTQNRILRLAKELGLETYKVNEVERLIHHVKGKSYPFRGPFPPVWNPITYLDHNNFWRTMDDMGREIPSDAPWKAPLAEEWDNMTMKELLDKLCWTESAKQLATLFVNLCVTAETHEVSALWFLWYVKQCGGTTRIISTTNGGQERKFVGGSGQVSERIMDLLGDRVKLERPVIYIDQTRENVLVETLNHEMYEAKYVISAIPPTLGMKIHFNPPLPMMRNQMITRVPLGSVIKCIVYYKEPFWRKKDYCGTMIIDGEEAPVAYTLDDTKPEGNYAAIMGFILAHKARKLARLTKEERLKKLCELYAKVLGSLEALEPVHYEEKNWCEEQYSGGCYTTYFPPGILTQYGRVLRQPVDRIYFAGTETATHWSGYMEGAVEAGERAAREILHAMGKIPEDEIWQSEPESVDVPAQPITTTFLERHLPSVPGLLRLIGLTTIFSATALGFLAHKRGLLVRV
Protocol: Kinetic studies on MAO-B inhibitions were performed on TM1 and TM8.

[4] = biological target: T2, MAO-B; experiment: MAO-B enzyme inhibition (benzylamine substrate, 250 nm); conditions: for Times more potent than pargyline (MAO-B) / Times more potent than the reference drug lazabemide (MAO-B): ratio of MAO-B IC50 values; for remaining activity at 10 µM: read-out: Residual Activity at 10 µM (%) MAO-B
Protocol: as §4, §5

[5] = test system: Vero cells; experiment: ROS assay (H2O2-induced ROS levels); assay type: cell-based, African Green Monkey; conditions: compound at its IC50 value, exogenous H2O2
Protocol: ROS increase vulnerability to neuronal damage by causing oxidative damage in the brain during neurodegenerative diseases.
(§1) The cytotoxicities and ROS quenching abilities of the two lead compounds (TM1 and TM8) were evaluated as previously described.
Figure 6 Effects of TM1 (a) and TM8 (b) on H2O2-induced ROS levels. Vero cells (1 × 10^6 cells/mL) were pre-incubated with 100 μg/mL of 30% H2O2 and ROS production was evaluated immediately as described in Section 4.

[6] = biological target: T2, MAO-B; experiment: Reversibility of MAO-B inhibition by dialysis; assay type: biochemical; conditions: for MAO-B activity of dialyzed sample (AD): after dialysis; for MAO-B activity of dialyzed sample (AD) / MAO-B activity of undialyzed sample (AU): test compounds […], lazabemide 0.20 µM, pargyline 0.30 µM; for Reversibility of MAO-B inhibition: dialysis-based method; for MAO-B activity of undialyzed sample (AU): preincubated 30 min
Protocol: The reversibilities of MAO-B inhibitions by TM1 and TM8 were assessed by dialysis. […] Reversibility patterns were determined by comparing the activities of dialyzed (AD) and undialyzed (AU) samples.

[7] = Cytotoxicity by MTT assay; assay type: cell-based, African Green Monkey; conditions: African green monkey, Vero cells (kidney); Vero cells treated at effective concentrations; read-out: Cells remaining viable
Protocol: (§2) African Green Monkey kidney cells (VERO cells) were used to evaluate the cytotoxic effects of TM1 and TM8. Cells were incubated with different doses (1 µg/mL to 500 µg/mL) of the two compounds for 48 h, and relative cell viabilities were determined by MTT assay.
as §1
(§3) Figure 4 Effect of TM1 on Vero cell viability. (a) cell viability treated with TM1; (b) dose-response curve; (c) phase contrast microscope images of Vero cells treated with different concentrations of TM1. Cells were treated with TM1 for 48 h and cell viabilities were assessed by MTT assay as described in Section 4.
as §3, with “Figure 5” for “Figure 4”, “of TM8” for “of TM1”, “with TM8;” for “with TM1;”, “of TM8.” for “of TM1.”, “with TM8” for “with TM1”

[8] = test system: Vero cells; experiment: Cytotoxicity by MTT assay; assay type: cell-based, African Green Monkey; conditions: 48 h, MTT assay; for IC50: Chlorocebus sabaeus, Vero, read-out: IC50 for Vero cell viability; for Concentrations resulting in high viability (>90%): Vero cells
Protocol: as §2, §1, §3
as §3, with “Figure 5” for “Figure 4”, “of TM8” for “of TM1”, “with TM8;” for “with TM1;”, “of TM8.” for “of TM1.”, “with TM8” for “with TM1”

[9] = test system: MAO-B; parameters: method as in PMID 30915862; conditions: study of Shalaby et al. ref 25; cited from earlier work
[10] = parameters: method as in PMID 12667689; conditions: PAMPA-BBB ref 31; cited from earlier work

Blood-brain barrier permeability in words [1]	Papp ([1]; PAMPA-BBB) [×10⁻⁶ cm/s]	IC50 [2] [µM]	remaining activity at 10 µM [2] [%]	IC50 [4] [µM]	Times more potent than pargyline (MAO-B) [4] [times]	Times more potent than the reference drug lazabemide (MAO-B) [4] [times]	remaining activity at 10 µM [4] [%]	MAO-B activity of dialyzed sample (AD) [6] [%]	Reversibility of MAO-B inhibition [6]	MAO-B activity of undialyzed sample (AU) [6] [%]	SMILES	Prediction (BBB permeation) [1]	Effect on H2O2-induced intracellular ROS levels [5]	viability at 48 h [7] [%]	IC50 ([8]; converted from µg/mL) [µM]	IC50 [8] [µg/mL]	Bibliography Pe [10] [×10⁻⁶ cm/s]	further results
high blood-brain barrier permeabilities	15.5 ± 0.33	13.8 ± 0.05	62.6 ± 9.7	0.017 ± 0.003	1.6	3.7	13.2 ± 0.7	68.1	reversible MAO-B inhibitors	24.9	CSc1ccc(C(=O)/C=C/c2ccccc2)cc1 [TM1]	CNS+ (CNS+ (high BBB permeation predicted): Pe (10^−6 cm·s^−1) > 4.00)	significantly reduced reactive oxygen species (ROS) levels; also recorded: appreciably lower ROS levels; also recorded: mitigated H2O2-induced increases in ROS levels	> 90	948	242	–	Inhibitor type for MAO-B ([3]; Lineweaver-Burk plots): competitively inhibited MAO-B; also recorded: competitive; Ki ([3]; from secondary plots of slopes vs. inhibitor concentrations): 0.011 ± 0.001 µM; SI (hMAO-B selectivity index) ([4]; IC50(hMAO-A) divided by IC50(hMAO-B)): 812 and 811.8; Concentrations resulting in high viability (>90%) [8]: < 250 µg/mL; Concentrations resulting in high viability (>90%) ([8]; converted from µg/mL): < 983.1 µM
–	–	–	–	–	–	–	–	–	–	–	CSc1ccc(C(=O)/C=C/c2cccc(Br)c2)cc1 [(E)-3-(3-bromophenyl)-1-(4-(methylthio)phenyl)prop-2-en-1-one]	–	–	–	–	–	–	IC50 [9]: 0.19 ± 0.01 µM
–	–	–	–	–	–	–	–	–	–	–	NCCc1ccc(O)c(O)c1 [Dopamine, reference compound]	CNS− (CNS− (low BBB permeation predicted): Pe (10^−6 cm·s^−1) < 2.00)	–	–	–	–	0.2	–
high blood-brain barrier permeabilities	16.3 ± 0.26	48.6 ± 3.44	77.4 ± 8.2	0.01 ± 0.005	2.8	6.3	4.1 ± 0.5	69.3	reversible MAO-B inhibitors	33.1	CSc1ccc(C(=O)/C=C/c2ccc(Cl)cc2)cc1 [TM8]	CNS+ (CNS+ (high BBB permeation predicted): Pe (10^−6 cm·s^−1) > 4.00)	significantly reduced reactive oxygen species (ROS) levels; also recorded: appreciably lower ROS levels; also recorded: mitigated H2O2-induced increases in ROS levels	> 90	402	116	–	–
–	–	–	–	–	–	–	–	–	–	–	CN1C(C(=O)Nc2ccccn2)=C(O)c2ccccc2S1(=O)=O [Piroxicam, reference compound]	CNS± (CNS± (BBB permeation uncertain): Pe (10^−6 cm·s^−1) from 2.00 to 4.00)	–	–	–	–	2.5	Experimental Pe ([1]; PAMPA-BBB): 2.44 ± 0.26 ×10^−6 cm·s^−1

From publication PMC8623647 (Pharmaceuticals, 2021)
